Laboratory results reported in patent publication US12422427B2, “Compounds for treatment of diseases and methods of screening therefor” (Max-Planck-Gesellschaft zur Förderung der Wissenschaften …, priority 2018, dated 2025).

How the values were obtained:
[1] = system: HeLa cells expressing FUS GFP; experiment: HeLa cell compound dose responses (FUS GFP, arsenate stress); type: cell-based; conditions: 1 h pre-treatment, 1 h arsenate stress
Protocol: Small dilution steps rather than concentration replicates were selected as it provides greater statistical power from a set number of samples. Final DMSO concentration was 0.08% in all samples, and each plate included at least 12 control wells with 0.08% DMSO. Cytoplasmic FUS droplet number and nuclear/cytoplasm partition of FUS were analysed using custom macros in ImageJ. Nuclei were identified by intensity thresholding of the blue fluorescence image following a 5 px Gaussian blur. Cytoplasmic FUS droplets by intensity thresholding of the green image following a 10 px weight 0.9 unsharp filter masked by the thresholded nuclei, and nuclear FUS droplets by intensity thresholding of the green image following a 5 px weight 0.9 unsharp filter and 10 px rolling ball background subtraction masked to only include thresholded nuclei. The ratio of cytoplasmic FUS drops to nuclei was taken as cytoplasmic FUS droplets per cell per field of view, and p, the ratio of partition of FUS to the nucleus and the cytoplasm, was derived from a=Vn/vt, the ratio of nuclear to total green signal per field of view, where p=a/(1−a). […] Six fields of view were captured and analysed per condition.

[2] = system: FUS GFP; experiment: Ex vivo DNA cut assay: FUS GFP recruitment to UV laser-induced DNA damage; type: cell-based, human
Source text: FUS is recruited to sites of DNA damage, and a potential mechanism contributing to ALS pathogenesis is reduced DNA damage response due to sequestration of FUS in the cytoplasm in stress granules. Strong association of FUS nuclear localization (NLS) mutations (e.g., P525L) with familial ALS mutations supports this hypothesis. The inventors therefore tested whether lipoamide affect FUS recruitment to sites of DNA damage induced by focused UV laser irradiation site, using arsenate-stressed iPSCs expressing FUS GFP (FIG. 4B). […] The action of lipoamide is therefore specific to cytoplasmic FUS liquid-like compartments, a therapeutically useful feature.
UV micro-irradiation of live cells was performed to induce DNA damage. KOLF iPS MNs expressing […] were […]. A single point in the nucleus was subject to 3 UV pulses as described for FRAP, but at 10% laser power. GFP fluorescence was imaged at 1 Hz, and intensity of response was analysed in ImageJ.

[3] = target: T1, FUS GFP (Homo sapiens, UniProt P35637); experiment: In vitro purified FUS GFP droplet screen; type: biochemical; conditions: low salt conditions, 1 mM DTT, up to 100 μM compound
T1 construct: His MBP (N, cleaved yes); made in house; host or cells: baculovirus/insect cell expression system
T1 sequence (P35637 1-526): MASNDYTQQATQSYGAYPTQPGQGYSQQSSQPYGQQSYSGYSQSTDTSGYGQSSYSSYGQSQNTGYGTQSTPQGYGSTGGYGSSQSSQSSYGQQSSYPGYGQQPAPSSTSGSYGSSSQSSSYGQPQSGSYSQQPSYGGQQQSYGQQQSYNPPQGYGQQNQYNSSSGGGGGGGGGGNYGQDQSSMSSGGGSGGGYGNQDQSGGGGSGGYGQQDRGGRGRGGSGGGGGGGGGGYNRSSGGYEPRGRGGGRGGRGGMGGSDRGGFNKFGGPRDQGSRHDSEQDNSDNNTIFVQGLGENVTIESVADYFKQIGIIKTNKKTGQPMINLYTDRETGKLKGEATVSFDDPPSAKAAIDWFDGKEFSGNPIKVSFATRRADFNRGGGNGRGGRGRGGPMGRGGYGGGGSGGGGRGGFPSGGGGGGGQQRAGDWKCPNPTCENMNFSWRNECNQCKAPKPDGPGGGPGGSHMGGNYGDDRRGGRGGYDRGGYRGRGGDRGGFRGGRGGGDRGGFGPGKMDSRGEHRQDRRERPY
Protocol: Compounds that can directly interact with FUS were of primary interest, therefore the inventors performed a follow up screen for action of compounds on FUS droplet formation in vitro (FIG. 1D). […] Hits were identified by the effect on number of FUS droplets formed and the partition of FUS into the droplets formed under low salt conditions in vitro in the presence of 1 mM DTT to mimic the reducing intracellular environment (FIG. 1E).
The effect of compounds on FUS GFP droplets in vitro was assessed in 384 well plate format. The compound volume (in DMSO) necessary for 1, 3, 10, 30 or 100 μM final concentration were added by acoustic dispensing (Labcyte Echo 550) to 96 well plate wells containing 3 μl FUS GFP diluted in 50 mM Tris. HCl pH 7.4, 1 mM DTT (for low salt assays). Final DMSO concentration was 0.01 to 1%. Using a Freedom Evo 200 liquid handling workstation (TECAN) the FUS GFP/compound mixture was diluted in 7 μl assay buffer containing 50 mM Tris. HCl pH 7.4, 1 mM DTT, 50 mM KCl and 0.7 μM FUS GFP. Compound/FUS GFP and assay buffer were mixed by a standardised pipetting procedure then split to four wells in clear bottom 384 well plates then immediately imaged using a CellVoyager CV7000 automated spinning disc confocal microscope (as above). […] Droplet number and FUS GFP partition into droplets were analysed with a fixed intensity threshold using ImageJ.

[4] = target: T2, FUS low complexity domain (residues 1 to 163) (Homo sapiens, UniProt P35637); experiment: 1H-15N HSQC NMR of FUS low complexity domain with compound; type: binding; conditions: 500 μM compound
T2 construct: untagged FUS low complexity domain (residues 1 to 163) expressed, purified and analysed; made in house
T2 sequence (P35637 1-163): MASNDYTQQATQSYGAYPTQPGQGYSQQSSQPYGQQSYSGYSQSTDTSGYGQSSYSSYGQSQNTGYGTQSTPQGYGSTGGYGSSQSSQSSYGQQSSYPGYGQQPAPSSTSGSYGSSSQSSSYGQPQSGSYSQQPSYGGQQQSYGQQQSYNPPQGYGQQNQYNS
Protocol: Finally, mechanistic detail was analyzed at the sub-molecular level by using NMR of the FUS prion-like N-terminal LCD to determine putative sites of lipoamide interaction. The LCD is able to phase separate to form condensates in vitro and the individual residues can be resolved and assigned in a ^1H-^15N heteronuclear single quantum coherence spectrum. ^1H-^15N analyses reveal a change in environment of individual residues as indicated by their corresponding chemical shifts. The magnitude of chemical shift changes were compared with and without both lipoamide or mitoxantrone. […] This leaves several possibilities: Perhaps lipoamide interacts with the FUS LCD only when phase separated, potentially reducing viscosity, or interacts with the condensate phase boundary, perhaps increasing surface tension. Such interactions may reduce formation or expansion of aggregated forms of FUS involved in condensate hardening and reduced liquidity.
For analysis of compound interaction with FUS untagged FUS low complexity domain (residues 1 to 163) expressed, purified and analysed using ^1H-^15N heteronuclear single quantum coherence NMR and sample conditions previously described^14 in the presence of 500 μM compound or equivalent DMSO solvent control (1%).

[5] = system: P bodies, Cajal bodies, PML bodies, DNA damage foci, nucleolus; experiment: Effect on other non-membrane bound compartments in HeLa GFP marker lines; type: cell-based
Protocol: FIG. 4A) Images of HeLa cells expressing Protein GFP markers of other non-membrane bound compartments subject to 1 h treatment with 10 μM compound (or DMSO control). Where unclear, the position of nuclei is indicated with a dotted outline. […] FIG. 4B) Recruitment of FUS GFP to sites of UV laser-induced DNA damage in iPS cells after 1 h treatment with compound followed by 1 h arsenate stress.
Stress granules are one of several, similar, cytoplasmic RNA-containing liquid-like compartments. […] Several stress granule proteins also form nuclear bodies: nuclear paraspeckles, and foci at the sites of DNA damage. There are also many other nuclear liquid-like compartments. It was then asked whether lipoamide also affected these other bodies, using a panel of cell lines expressing GFP fusions. For this analysis, mitoxantrone was included as a representative of the heterotri-/tetracyclic compound class of hits (FIG. 1F). An overly-broad effect on liquid-like compartments would likely cause side-effects for a therapeutic.
The action of lipoamide is therefore specific to the signaling and/or physical chemistry driving stress granule formation, stress granule phase separation, and/or a specific signaling route. Stress granules normally form and dissolve rapidly in comparison to many other compartments.

SMILES: O=C1c2c(O)ccc(O)c2C(=O)c2c(NCCNCCO)ccc(NCCNCCO)c21 [mitoxantrone, reference compound]
- nuclear/cytoplasm FUS partition, dose response [1]: decreased nuclear/cytoplasm FUS partition
- stress granule number, dose response [1]: reducing stress granule number
- FUS GFP recruitment to sites of DNA damage ([2]; concentrations not sufficient to dissolve cytoplasmic FUS droplets): blocked recruitment of FUS GFP to sites of DNA damage
- formation of nuclear FUS droplets at the sites of DNA damage (FIG. 4B legend) ([2]; iPS cells, arsenate stress): prevents formation of nuclear FUS droplets
- FUS GFP droplet number, partition into droplets and droplet size [3]: fewer smaller drops
- chemical shift changes of FUS LCD residues [4]: weak shifts across the LCD
- disruption of P bodies (DCP1A), Cajal bodies (COIL), DNA damage foci (TRP53BP1), nucleolus (NCB1) ([5]; 1 h treatment with 10 μM compound): non-stress granule specific effects
- localization of P-body, PML body and DNA damage focus proteins ([5]; conditions that would dissolve stress granules): affected all of these compartments to some extent
